We go through 17 compounds from US8168792B2, “Heterocyclic antiviral compounds” (Roche Palo Alto LLC, priority 2009, dated 2012).

The target of series [1] is T1, HCV polymerase (NS5B570n-Con1) (Hepatitis C virus genotype 1b, UniProt Q9WMX2).
T1 construct: contains a 21 amino acid deletion at the C-terminus relative to the full-length HCV polymerase; 6-histidine (N); made in house; host or cells: E. coli BL21(DE) pLysS, plasmid pET17b
Kind of series: HCV NS5B RNA polymerase activity (incorporation of radiolabeled nucleotide into RNA). In kind it is biochemical, HCV Con1 strain. Here is the method:
The enzymatic activity of HCV polymerase (NS5B570n-Con1) was measured as the incorporation of radiolabeled nucleotide monophosphates into acid insoluble RNA products. Unincorporated radio labeled substrate was removed by filtration and scintillant was added to the washed and dried filter plate containing radio labeled RNA product. The amount of RNA product generated by NS5B570-Con1 at the end of the reaction was directly proportional to the amount of light emitted by the scintillant.
The N-terminal 6-histidine tagged HCV polymerase, derived from HCV Con1 strain, genotype 1b (NS5B570n-Con1) contains a 21 amino acid deletion at the C-terminus relative to the full-length HCV polymerase and was purified from E. coli strain BL21(DE) pLysS. The construct, containing the coding sequence of HCV NS5B Con1 (GenBank accession number AJ242654) was inserted into the plasmid construct pET17b, downstream of a T7 promoter expression cassette and transformed into E. coli. A single colony was grown overnight as a starter culture and later used inoculate 10 L of LB media supplemented with 100 μg/mL ampicillin at 37° C. Protein expression was induced by the addition of 0.25 mM isopropyl-β-D-thiogalactopyranoside (IPTG) when optical density at […] of the culture was between 0.6 and 0.8 and cells were harvested after 16 to 18 h at 30° C. NS5B570n-Con1 was purified to homogeneity using a three-step protocol including subsequent column chromatography on Ni-NTA, SP-Sepharose HP and Superdex 75 resins.
Each 50 μl enzymatic reaction contained 20 nM RNA template derived from the complementary sequence of the Internal Ribosome Entry Site (cIRES), 20 nM NS5B570n-Con1 enzyme, 0.5 μCi of tritiated UTP (Perkin Elmer catalog no. TRK-412; specific activity: 30 to 60 Ci/mmol; stock solution concentration from 7.5×10^-5 M to 20.6×10^-6 M), 1 μM each ATP, CTP, and GTP, 40 mM Tris-HCl pH 8.0, 40 mM NaCl, 4 mM DTT (dithiothreitol), 4 mM MgCl2, and 5 μl of compound serial diluted in DMSO. Reaction mixtures were assembled in 96-well filter plates (cat #MADVN0B, Millipore Co.) and incubated for 2 h at 30° C. Reactions were stopped by addition of 10% final (v/v) trichloroacetic acid and incubated for 40 min at 4° C. Reactions were filtered, washed with 8 reaction volumes of 10% (v/v) trichloroacetic acetic acid, 4 reaction volumes of 70% (v/v) ethanol, air dried, and 25 μl of scintillant (Microscint 20, Perkin-Elmer) was added to each reaction well.
The amount of light emitted from the scintillant was converted to counts per minute (CPM) on a Topcount® plate reader (Perkin-Elmer, Energy Range: Low, Efficiency Mode Normal, Count Time: 1 min, Background Subtract: none, Cross talk reduction: Off).
Data was analyzed in Excel® (Microsoft) and ActivityBase® (Idbs®). The reaction in the absence of enzyme was used to determine the background signal, which was subtracted from the enzymatic reactions. Positive control reactions were performed in the absence of compound, from which the background corrected activity was set as 100% polymerase activity. All data was expressed as a percentage of the positive control. The compound concentration at which the enzyme-catalyzed rate of RNA synthesis was reduced by 50% (IC50) was calculated by fitting
[formula] equation (i) to the data where “Y” corresponds to the relative enzyme activity (in %), “% Min” is the residual relative activity at saturating compound concentration, “% Max” is the relative maximum enzymatic activity, “X” corresponds to the compound concentration, and “S” is the Hill coefficient (or slope).

In series [2] the test system is HCV replicon (genotype 1b, cell line 2209-23). Nature of the series: HCV replicon assay (Renilla luciferase reporter). The format is cell-based, HCV genotype 1b. The conditions noted are these: Hepatitis C virus, 72 h; three days incubation, luciferase readout.
The next series in a line: in vitro. The conditions noted are these: human.
The next series concerns HCV. The conditions noted are these: monotherapy / sole treatment; cited from earlier work.

Regarding `CC(C)(C)c1cc(-c2ccc[nH]c2=O)c2[nH]c(=O)c(-c3ccc(NS(C)(=O)=O)cc3)cc2c1` [Compound I-9], the melting point is above 300 °C. In series [1], this compound showed an IC50 of 5 nM.
On the same counts, the results for `CC(C)(C)c1cc(-c2ccc[nH]c2=O)c2[nH]c(=O)c(-c3cccc(NS(C)(=O)=O)c3)cc2c1` [Compound I-10, N-{3-[6-tert-Butyl-2-oxo-8-(2-oxo-1,2-dihydro-pyridin-3-yl)-1,2-dihydro-quinolin-3-yl]-phenyl}-methanesulfonamide] are 233 to 235 °C and 531 nM.
In turn, `CC(C)(C)c1cc(-c2ccc[nH]c2=O)c2oc(=O)c(-c3ccc(NS(C)(=O)=O)cc3)cc2c1` [Compound I-5, N-{4-[6-tert-Butyl-2-oxo-8-(2-oxo-1,2-dihydro-pyridin-3-yl)-2H-chromen-3-yl]-phenyl}-methanesulfonamide] showed a melting point of 225 to 227 °C. In series [1], this compound gave an IC50 of 5 nM. In series [2], this compound displayed an IC50 of 10 nM. Also, the CC50 at 3 days in “in vitro” was determined as 95100 nM.
Regarding `CC(C)(C)c1cc(-c2ccc[nH]c2=O)c2c(=O)[nH]c(-c3ccc(NS(C)(=O)=O)cc3)cc2c1` [Compound I-14, N-{4-[6-tert-Butyl-1-oxo-8-(2-oxo-1,2-dihydro-pyridin-3-yl)-1,2-dihydro-isoquinolin-3-yl]-phenyl}-methanesulfonamide], the melting point was above 300 °C. In addition, the IC50 in series [1] was 16 nM.
On the same counts, the results for `Cn1c(=O)c(-c2ccccc2)cc2cc(C(C)(C)C)cc(-c3ccc[nH]c3=O)c21` [Compound I-6] are 290 to 292 °C and 456 nM.
On the same counts, the results for `CC(C)(C)c1cc(-c2ccc[nH]c2=O)c2[nH]c(=O)c(-c3cccc(C(N)=O)c3)cc2c1` [Compound I-13] are 255 to 257 °C and 36 nM.
Consider `CC(C)(C)c1cc(-c2ccc[nH]c2=O)c2[nH]c(=O)c(-c3ccccc3)cc2c1` [Compound I-4], for which the melting point fell in the range of 200 to 202 °C. The compound further gave an IC50 in series [1] of 91 nM.
For `Cn1c(=O)c(-c2ccc(O)cc2)cc2cc(C(C)(C)C)cc(-c3ccc[nH]c3=O)c21` [Compound I-7], in that order: above 300 °C and 900 nM.
For `Cn1c(=O)c(-c2ccc(S(N)(=O)=O)cc2)cc2cc(C(C)(C)C)cc(-c3ccc[nH]c3=O)c21` [Compound I-12], in that order: above 300 °C and 2370 nM.
Turning to `NC(=O)c1ncn([C@@H]2O[C@H](CO)[C@@H](O)[C@H]2O)n1` [ribavirin, 1-((2R,3R,4S,5R)-3,4-Dihydroxy-5-hydroxymethyl-tetrahydro-furan-2-yl)-1H-[1,2,4]triazole-3-carboxylic acid amide], the “serum levels of HCV-RNA” value with HCV is “does not lower serum levels of HCV-RNA”.
In turn, `Cn1c(=O)c(-c2ccc(NS(C)(=O)=O)cc2)cc2cc(C(C)(C)C)cc(-c3ccc[nH]c3=O)c21` [Compound I-8, N-{4-[6-tert-Butyl-1-methyl-2-oxo-8-(2-oxo-1,2-dihydro-pyridin-3-yl)-1,2-dihydro-quinolin-3-yl]-phenyl}-methanesulfonamide] had a melting point above 300 °C. This compound showed an IC50 in series [1] of 6 nM.
For `CC(C)(C)c1cc(-c2ccc[nH]c2=O)c2c(=O)oc(-c3ccc(NS(C)(=O)=O)cc3)cc2c1` [Compound I-15, N-{4-[6-tert-Butyl-1-oxo-8-(2-oxo-1,2-dihydro-pyridin-3-yl)-1H-isochromen-3-yl]-phenyl}methanesulfonamide], the IC50 in series [1] is 8 nM.
In turn, `CC(C)(C)c1cc(-c2ccc[nH]c2=O)c2[nH]c(=O)c(-c3ccc(S(N)(=O)=O)cc3)cc2c1` [Compound I-11] registered a melting point of 250 to 252 °C. In series [1], this compound returned a concentration for half-maximal inhibition (IC50) of 46 nM.
On the same counts, the results for `CC(C)(C)c1cc2c(c(-c3ccc[nH]c3=O)c1)OC(O)C(c1ccc(NS(C)(=O)=O)cc1)C2` (stereo not shown) [Compound I-18, N-{4-[6-tert-Butyl-2-hydroxy-8-(2-oxo-1,2-dihydro-pyridin-3-yl)-chroman-3-yl]-phenyl}-methanesulfonamide] are 228 to 230 °C and 7 nM.
For `CC(C)(C)c1cc(-c2ccc[nH]c2=O)c2oc(=O)ccc2c1` [Compound I-1, 3-(6-tert-Butyl-2-oxo-2H-chromen-8-yl)-1H-pyridin-2-one], in that order: above 300 °C and 1530 nM.
For `CC(C)(C)c1cc(-c2ccc[nH]c2=O)c2oc(=O)c(-c3ccc(N)cc3)cc2c1` [Compound I-3], in that order: above 300 °C and 34 nM.
Consider `CC(C)(C)c1cc(-c2ccc[nH]c2=O)c2[nH]c(=O)ccc2c1` [Compound I-2], for which the melting point is above 300 °C. Half-maximal inhibition in series [1] (IC50) required 332 nM.
